Consider 15 compounds from patent US8263598B2, “Substituted sulfonamide compounds” (Gruenenthal GmbH, priority 2008, dated 2012).

Test [1] concerns the target T1, B1R receptor of rats (rB1R) (Rattus norvegicus, UniProt P97583).
T1 construct: host or cells: CHO K1 cells
T1 sequence (P97583 1-337): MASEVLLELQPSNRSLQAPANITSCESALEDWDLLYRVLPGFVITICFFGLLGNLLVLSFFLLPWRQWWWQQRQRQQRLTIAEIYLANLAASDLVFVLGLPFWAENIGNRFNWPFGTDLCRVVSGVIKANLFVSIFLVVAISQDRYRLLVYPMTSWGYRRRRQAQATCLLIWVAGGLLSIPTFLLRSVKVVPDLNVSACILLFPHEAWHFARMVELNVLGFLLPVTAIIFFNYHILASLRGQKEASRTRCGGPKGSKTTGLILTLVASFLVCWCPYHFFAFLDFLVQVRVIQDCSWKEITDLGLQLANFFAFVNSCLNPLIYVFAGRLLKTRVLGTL
The test is described as follows: FLIPR Ca2+ assay on rat bradykinin 1 receptor (CHO K1 rB1R cells). In kind it is cell-based. Conditions: test substance 10 μM; CHO K1 cells with B1R gene of rats; agonist Des-Arg9-bradykinin 100 nM; compared to maximum achievable inhibition. As for the experimental part: (§1) The agonistic or antagonistic action of compounds can be quantified on the bradykinin 1 receptor (B1R) of humans and rats with ectopically expressing cell lines (CHO K1 cells) and with the aid of a Ca^2+-sensitive dye (Fluo-4) in the fluorescent imaging plate reader (FLIPR). The figure in percent activation refers to the Ca^2+ signal after addition of Lys-Des-Arg^9-bradykinin (0.5 nM) and Des-Arg^9-bradykinin (100 nM). Antagonists result in a suppression of the Ca^2+ inflow after the addition of the agonist. Percent inhibition values are given in comparison to the maximum achievable inhibition.
(§2) The agonistic or antagonistic action of substances can be determined on the bradykinin 1 receptor (B1R) of humans and rats by means of the following assay.
(§3) According to this assay the Ca^2+ inflow through the channel is quantified by means of a Ca^2+-sensitive dye (Fluo-4 type, Molecular Probes Europe BV, Leiden, Netherlands), in a Fluorescent Imaging Plate Reader (FLIPR, Molecular Devices, Sunnyvale, USA). Method:
(§4) Chinese hamster ovary cells (CHO K1 cells) are used, which are stably transfected with the human B1R gene (hB1R cells, Euroscreen s.a., Gosselies, Belgium), or with the B1R gene of rats (rB1R cells, Axxam, Milan, Italy). For functional investigations these cells are plated out on black 96-well plates with a clear floor (BD Biosciences, Heidelberg, Germany) in a density of 20,000/25,000 cells/well. The cells are incubated overnight with 10 vol. % FBS (foetal bovine serum, Gibco Invitrogen GmbH, Karlsruhe, Germany) at 37° C. and 5% CO2 in a culture medium (hB1R cells: Nutrient Mixture Ham's F12, Gibco Invitrogen GmbH, Karlsruhe, Germany; rB1R cells: D-MEM/F12, Gibco Invitrogen GmbH, Karlsruhe, Germany). The following day the cells are charged for 60 minutes at 37° C. with 2.13 μM Fluo-4 (Molecular Probes Europe BV, Leiden, Netherlands) in HBSS buffer (Hank's buffered saline solution, Gibco Invitrogen GmbH, Karlsruhe, Germany) together with […] (Sigma-Aldrich, Taufkirchen, Germany) and 10 mM HEPES (Sigma-Aldrich, Taufkirchen, Germany).
(§5) The plates are then washed twice with HBSS buffer and HBSS buffer is added which additionally contains 0.1% BSA (bovine serum albumin; Sigma-Aldrich, Taufkirchen, Germany), 5.6 mM glucose and 0.05% gelatin (Merck KGaA, Darmstadt, Germany). After further incubation for 20 minutes at room temperature the plates are used for the Ca^2+ measurement in the FLIPR. The Ca^2+-dependent fluorescence is measured both before and after the addition of substances (λex=488 nm, λem=540 nm). The quantification is carried out by measuring the highest fluorescence intensity (FC, fluorescence counts) over time.
(§6) The FLIPR protocol consists of two substance additions. First of all test substances (10 μM) are pipetted onto the cells and the Ca^2+ inflow is compared with the control (hB1R: Lys-Des-Arg9-bradykinin 0.5 nM; rB1R: Des-Arg9-bradykinin 100 nM). This gives the result in percent activation referred to the Ca^2+ signal after addition of Lys-Des-Arg9-bradykinin (0.5 nM), bzw. Des-Arg9-bradykinin (100 nM). After 10 minutes' incubation 0.5 nM Lys-Des-Arg9-bradykinin (hB1R) and 100 nM Des-Arg^9-bradykinin (rB1R) are applied and the inflow of Ca^2+ is likewise determined. Antagonists lead to a suppression of the Ca^2+ inflow. The percent inhibition compared to the maximum achievable inhibition is calculated. The compounds show a good activity on both human and rat receptors.
(§7) The agonistic and antagonistic action of the compounds according to the invention on the bradykinin 1 receptor (B1R) of humans and rats were determined as described above. Antagonists lead to a suppression of the Ca^2+ inflow. The % inhibition compared to the maximum achievable inhibition was calculated.

Test [2] has as its target T2, human B1R receptor (hB1R) (Homo sapiens, UniProt P46663).
T2 construct: host or cells: CHO K1 cells
T2 sequence (P46663 1-353): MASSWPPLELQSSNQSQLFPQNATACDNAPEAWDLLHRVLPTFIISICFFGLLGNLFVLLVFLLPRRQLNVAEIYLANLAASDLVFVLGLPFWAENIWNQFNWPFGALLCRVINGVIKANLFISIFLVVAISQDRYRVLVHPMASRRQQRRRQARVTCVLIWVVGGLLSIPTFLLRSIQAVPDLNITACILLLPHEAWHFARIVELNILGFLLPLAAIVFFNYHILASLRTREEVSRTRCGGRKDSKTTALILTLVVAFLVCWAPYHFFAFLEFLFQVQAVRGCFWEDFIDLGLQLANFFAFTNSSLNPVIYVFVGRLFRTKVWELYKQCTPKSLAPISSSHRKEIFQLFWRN
Description: FLIPR Ca2+ assay on human bradykinin 1 receptor (CHO K1 hB1R cells). The class given is cell-based. As to conditions: test substance 10 μM; CHO K1 cells with human B1R gene; agonist Lys-Des-Arg9-bradykinin 0.5 nM; compared to maximum achievable inhibition. As for the experimental part: as §1, §2, §3, §4, §5, §6, §7

The inhibition is the change of the read-out against control, counted positive when it falls. In the case of `CN1CCN(CCCc2ccc3n2CCN(C(=O)CC(NS(=O)(=O)c2ccc4ccccc4c2)c2ccccc2)C3)CC1` (stereo not shown) [Example 13, N-(3-(6-(3-(4-methylpiperazin-1-yl)propyl)-3,4-dihydropyrrolo[1,2-a]pyrazin-2(1H)-yl)-3-oxo-1-phenylpropyl)naphthalene-2-sulfonamide], the inhibition at 10 µM was 100% in test [1] and 44% in test [2].

As to `O=C(CC(NS(=O)(=O)c1ccc2ccccc2c1)c1ccccc1)N1CCn2c(CN3CCOCC3)ccc2C1` (stereo not shown) [Example 10, N-(3-(6-(morpholinomethyl)-3,4-dihydropyrrolo[1,2-a]pyrazin-2(1H)-yl)-3-oxo-1-phenylpropyl)naphthalene-2-sulfonamide], the figures for the inhibition at 10 µM in test [1] and in test [2] were 100% and 97%, respectively.

For the compound `Cc1cc(C)c(S(=O)(=O)N(C)CCOCC(=O)N2CCn3c(CN4CCCC4)ccc3C2c2ccccc2)c(C)c1` (stereo not shown) [Example 140, N,2,4,6-tetramethyl-N-(2-(2-oxo-2-(1-phenyl-6-(pyrrolidin-1-ylmethyl)-3,4-dihydropyrrolo[1,2-a]pyrazin-2(1H)-yl)ethoxy)ethyl)benzenesulfonamide], the figures for the inhibition at 10 µM in test [1] and in test [2] were 101% and 102%, respectively.

`CCC1c2cccn2CCN1C(=O)COCCN(C)S(=O)(=O)c1c(C)cc(OC)cc1C` (stereo not shown) [Example 135, N-(2-(2-(1-ethyl-3,4-dihydropyrrolo[1,2-a]pyrazin-2(1H)-yl)-2-oxoethoxy)ethyl)-4-methoxy-N,2,6-trimethylbenzenesulfonamide]: the inhibition at 10 µM in test [1] is 102%; in test [2] it was 104%.

For `CCC1c2ccc(CN(C)C)n2CCN1C(=O)COCCN(C)S(=O)(=O)c1cc(C)c(OC)c(C)c1C` (stereo not shown) [Example 113, N-(2-(2-(6-((dimethylamino)methyl)-1-ethyl-3,4-dihydropyrrolo[1,2-a]pyrazin-2(1H)-yl)-2-oxoethoxy)ethyl)-4-methoxy-N,2,3,5-tetramethylbenzenesulfonamide], the inhibition at 10 µM in test [1] was determined as 93%; in test [2] it was 103%.

On to “N-benzyl-N-(2-(2-(6-((dimethylamino)methyl)-1-ethyl-3,4-dihydropyrrolo[1,2-a]pyrazin-2(1H)-yl)-2-oxoethyl)ethyl)-4-methoxy-2,3,6-trimethylbenzenesulfonamide [Example 122]”, for which the “rB1R [10 μM] % Inhibition” value in test [1] came to 101%. Further, in test [2], the “hB1R [10 μM] % Inhibition” value came to 101%.

Take `COc1cc(C)c(S(=O)(=O)N(CCOCC(=O)N2CCn3cccc3C2c2cccc(F)c2)CC(C)C)c(C)c1C` (stereo not shown) [Example 24, N-(2-(2-(1-(3-fluorophenyl)-3,4-dihydropyrrolo[1,2-a]pyrazin-2(1H)-yl)-2-oxoethoxy)ethyl)-N-isobutyl-4-methoxy-2,3,6-trimethylbenzenesulfonamide]: the inhibition at 10 µM in test [1] stood at 99%; in test [2], 32%.

As to `COc1cc(C)c(S(=O)(=O)N(C)CCOCC(=O)N2CCn3cccc3C2c2ccc(Cl)nc2)c(C)c1` (stereo not shown) [Example 55, N-(2-(2-(1-(6-chloropyridin-3-yl)-3,4-dihydropyrrolo-[1,2-a]pyrazin-2(1H)-yl)-2-oxoethoxy)ethyl)-4-methoxy-N,2,6-trimethylbenzenesulfonamide], the inhibition at 10 µM was 99% in test [1] and 100% in test [2].

In the case of `COc1cc(C)c(S(=O)(=O)N(CCOCC(=O)N2CCn3cccc3C2CCc2ccccc2)Cc2ccccc2)c(C)c1` (stereo not shown) [Example 125, N-benzyl-4-methoxy-2,6-dimethyl-N-(2-(2-oxo-2-(1-phenethyl-3,4-dihydropyrrolo[1,2-a]pyrazin-2(1H)-yl)ethoxy)ethyl)benzenesulfonamide], the figures for the inhibition at 10 µM in test [1] and in test [2] were 78% and 25%, respectively.

As for `O=C(C[C@@H](NS(=O)(=O)c1ccc2ccccc2c1)c1ccccc1)N1CCn2cc(CN3CCCCC3)nc2C1` [Example 4, (R)-N-(3-oxo-1-phenyl-3-(2-(piperidin-1-ylmethyl)-5,6-dihydroimidazo[1,2-a]pyrazin-7(8H)-yl)propyl)naphthalene-2-sulfonamide], the inhibition at 10 µM amounted to 98% in test [1] and 102% in test [2].

On to `COc1cc(C)c(S(=O)(=O)N(C)CCOCC(=O)N2CCn3c(CN(C)C)ccc3C2c2ccccc2)c(C)c1` (stereo not shown) [Example 14, N-(2-(2-(6-((dimethylamino)methyl)-1-phenyl-3,4-dihydropyrrolo[1,2-a]pyrazin-2(1H)-yl)-2-oxoethoxy)ethyl)-4-methoxy-N,2,6-trimethylbenzenesulfonamide], for which the inhibition at 10 µM was 100% in test [1] and 103% in test [2].

In the case of `COc1cc(C)c(S(=O)(=O)N(CCOCC(=O)N2CCn3c(CN(C)C)ccc3C2c2cccs2)Cc2ccccc2)c(C)c1` (stereo not shown) [Example 130, N-benzyl-N-(2-(2-(6-((dimethylamino)methyl)-1-(thiophen-2-yl)-3,4-dihydropyrrolo[1,2-a]pyrazin-2(1H)-yl)-2-oxoethoxy)ethyl)-4-methoxy-2,6-dimethyl-benzenesulfonamide], the inhibition at 10 µM in test [1] came out at 102%; in test [2] it was 104%.

As to `COc1cc(C)c(S(=O)(=O)N(C)CCOCC(=O)N2CCn3c(CN4CCCCC4)ccc3C2c2ccccc2)c(C)c1` (stereo not shown) [Example 16, 4-methoxy-N,2,6-trimethyl-N-(2-(2-oxo-2-(1-phenyl-6-(piperidin-1-ylmethyl)-3,4-dihydropyrrolo[1,2-a]pyrazin-2(1H)-yl)ethoxy)ethyl)benzenesulfonamide], the inhibition at 10 µM came to 102% in test [1] and 104% in test [2].

`COc1cc(C)c(S(=O)(=O)N(C)CCOCC(=O)N2CCn3c(CN4CCCCC4)nnc3C2)c(C)c1` [Example 163, 4-Methoxy-N,2,6-trimethyl-N-(2-(2-oxo-2-(3-(piperidin-1-ylmethyl)-5,6-dihydro-[1,2,4]triazolo[4,3-a]pyrazin-7(8H)-yl)ethoxy)ethyl)benzenesulfonamide]: the inhibition at 10 µM in test [1] is 103%.

Turning to `O=C(C[C@@H](NS(=O)(=O)c1ccc2ccccc2c1)c1ccccc1)N1CCn2c(CN3CCCCC3)nnc2C1` [Example 164, (R)-N-(3-oxo-1-phenyl-3-(3-(piperidin-1-ylmethyl)-5,6-dihydro-[1,2,4]triazolo[4,3-a]pyrazin-7(8H)-yl)propyl)naphthalene-2-sulfonamide], in test [1], the inhibition at 10 µM is 102%.
